Data taken from patent US20170290871A1, “METHOD OF TREATING HYPERTENSION” (KING SAUD UNIVERSITY, priority 2016, published 2017).

Key:
Type in all cases: in vivo, Sprague-Dawley rats
[1] = test system: hypertension induced rats; experiment: Plasma lipid profile of hypertension induced rats; details: captopril 20 mg/kg daily for three weeks, mean ± SD of 6
Experimental: (§1) Male Sprague-Dawley rats were divided into nine groups of six rats each and treated daily for three consecutive weeks. High salt-sucrose solution was given to the rats to induce hypertension in them. […] At the end of the experimental period, arterial blood pressure and heart rate of all rats were recorded. The rats were sacrificed by decapitation and the free running blood was collected for analysis. The systolic blood pressure (SBP), the diastolic blood pressure (DBP) and the heart rate (HR) of the rats were measured by the tail cuff every day during the entire period of study in control, drug and extract treated animals. For the estimation of alanine transaminase (ALT), aspartate transaminase (AST), alkaline phosphatase (ALP), total cholesterol, triglycerides, low-density lipoprotein (LDL) and high density lipoprotein (HDL), blood samples were collected in clot activator gel tubes. The serum was separated by centrifuging the blood samples at 5000 rpm for 10 minutes. Serum biochemical parameters were then measured by using commercially available reagent kits.

[2] = test system: hypertension induced rats; experiment: Blood pressure and heart rate of salt-sucrose hypertension induced rats; details: captopril 20 mg/kg daily for three weeks, mean ± SD of 6
Experimental: (§2) Male Sprague-Dawley rats were divided into nine groups of six rats each and treated daily for three consecutive weeks. High salt-sucrose solution was given to the rats to induce hypertension in them. […] At the end of the experimental period, arterial blood pressure and heart rate of all rats were recorded. The rats were sacrificed by decapitation and the free running blood was collected for analysis. The systolic blood pressure (SBP), the diastolic blood pressure (DBP) and the heart rate (HR) of the rats were measured by the tail cuff every day during the entire period of study in control, drug and extract treated animals.

[3] = test system: hypertension induced rats; experiment: GSH and SOD in tissue homogenates (liver, heart, kidney) of hypertension induced rats
Experimental: as §2, with “animals. After collecting the blood samples from the rats, their abdominal cavity was opened; heart, liver and kidney were dissected out and homogenized in Tris-HCl buffer solution to make a 20% homogenate. Glutathione (GSH) and superoxide dismutase (SOD) were determined using the method described by Ellman & Misra for assessing the oxidative damage parameters in some organs.” for “animals.”

[4] = test system: hypertension induced rats; experiment: Serum marker enzymes (AST, ALT, ALP) of hypertension induced rats
Experimental: as §1

[5] = heart homogenate, captopril 20 mg/kg, mean ± SD of 6
[6] = kidney homogenate, captopril 20 mg/kg, mean ± SD of 6
[7] = liver homogenate, captopril 20 mg/kg, mean ± SD of 6
[8] = serum, captopril 20 mg/kg daily for three weeks, mean ± SD of 6

## C[C@H](CS)C(=O)N1CCC[C@H]1C(=O)O [Captopril, captopril]
[1]
  CHOLESTEROL: 135.42 ± 13.41a* mg/dL
  HDL: 41.46 ± 4.55a* mg/dL
  LDL: 89.23 ± 9.8a* mg/dL
  TRIGLYCERIDES: 106.41 ± 9.52a* mg/dL
[2]
  Diastolic BP: 95.56 ± 10.5a* mm Hg
  Heart rate: 328.86 ± 36.14a* beats/min
  Systolic BP: 121.45 ± 10.9a* mm Hg
[3]; [5]
  Heart GSH: 38.78 ± 4.69a^ mM/L
  Heart SOD: 68.92 ± 9.08a^@ U/mg
[3]; [6]
  Kidney GSH: 31.04 ± 2.78a^@ mM/L
  Kidney SOD: 67.96 ± 6.08a^@ U/mg
[3]; [7]
  Liver GSH: 28.92 ± 4.12a^ mM/L
  Liver SOD: 42.67 ± 5.62a^ U/mg
[3]; tissue homogenates
  levels of enzymic antioxidants, in words: retained to near normal values significantly
[4]
  levels of AST, ALT, ALP and lipid profile, in words: brought back significantly to near normal
[4]; [8]
  ALP: 132.12 ± 17.41a* IU/L
  ALT: 85.44 ± 10.33a* IU/L
  AST: 45.03 ± 5.44a* IU/L
